Values quoted from earlier work as cited in patent publication US10350275B2, “Methods of cytotoxic gene therapy to treat tumors” (Advantagene, Inc., priority 2013, dated 2019).

Tested on: tumors
Details: monotherapy; Senzer et al 2009

Anti-CTLA-4: Immune checkpoint inhibitor antibody; Ipilimumab (anti-CTLA-4) approved for metastatic melanoma
complete and partial responses, share of subjects: about 10.9%
